ChEMBL document CHEMBL1914417 (Bioorg Med Chem Lett, 2011)

Legend:
D(2) dopamine receptor = D(2) dopamine receptor (Homo sapiens, UniProt P14416); test: Antagonist activity at dopamine D2 receptor; assay type: functional
[1] = biological target: T1, Muscarinic acetylcholine receptor M5 (Rattus norvegicus, UniProt P08911); test: Agonist activity at rat muscarinic M5 receptor expressed in CHO cells; assay type: functional, cell-based
T1 sequence (P08911 whole entry): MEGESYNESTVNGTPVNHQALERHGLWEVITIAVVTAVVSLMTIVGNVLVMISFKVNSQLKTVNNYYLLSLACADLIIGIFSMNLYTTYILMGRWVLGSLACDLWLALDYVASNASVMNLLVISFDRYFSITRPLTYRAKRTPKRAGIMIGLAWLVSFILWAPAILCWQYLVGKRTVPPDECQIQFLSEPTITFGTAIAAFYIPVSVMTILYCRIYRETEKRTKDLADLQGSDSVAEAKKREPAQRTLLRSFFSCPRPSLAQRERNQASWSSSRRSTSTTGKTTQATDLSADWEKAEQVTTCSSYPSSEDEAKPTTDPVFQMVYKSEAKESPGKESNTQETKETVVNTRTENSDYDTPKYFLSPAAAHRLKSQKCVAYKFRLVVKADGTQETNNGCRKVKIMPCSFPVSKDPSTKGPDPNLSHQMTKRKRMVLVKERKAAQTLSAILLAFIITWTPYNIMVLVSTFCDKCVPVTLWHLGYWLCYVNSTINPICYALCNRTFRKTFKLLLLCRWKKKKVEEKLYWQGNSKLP

[2] = biological target: T2, Muscarinic acetylcholine receptor M4 (Rattus norvegicus, UniProt P08485); test: Agonist activity at rat recombinant muscarinic M4 receptor by HTS cell based assay; assay type: functional
T2 sequence (P08485 whole entry): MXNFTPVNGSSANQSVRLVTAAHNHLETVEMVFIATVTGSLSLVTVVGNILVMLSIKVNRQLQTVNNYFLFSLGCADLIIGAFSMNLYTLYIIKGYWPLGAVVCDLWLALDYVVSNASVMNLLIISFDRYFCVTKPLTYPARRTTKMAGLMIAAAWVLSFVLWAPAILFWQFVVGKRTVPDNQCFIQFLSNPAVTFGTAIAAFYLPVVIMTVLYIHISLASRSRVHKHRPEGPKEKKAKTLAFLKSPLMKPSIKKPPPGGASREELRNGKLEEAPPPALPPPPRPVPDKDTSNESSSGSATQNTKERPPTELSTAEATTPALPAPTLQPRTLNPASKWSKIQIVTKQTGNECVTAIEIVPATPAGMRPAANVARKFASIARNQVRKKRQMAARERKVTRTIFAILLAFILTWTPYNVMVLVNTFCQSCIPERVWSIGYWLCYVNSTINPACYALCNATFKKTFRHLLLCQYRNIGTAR

[3] = biological target: Muscarinic acetylcholine receptor M3 (Homo sapiens, UniProt P20309); test: Agonist activity at human recombinant muscarinic M3 receptor by HTS cell based assay; assay type: functional
[4] = biological target: T2, Muscarinic acetylcholine receptor M4; test: Agonist activity at rat muscarinic M4 receptor expressed in CHO cells; assay type: functional, cell-based
[5] = biological target: T3, Muscarinic acetylcholine receptor M5 (Homo sapiens, UniProt P08912); test: Agonist activity at human recombinant muscarinic M5 receptor by HTS cell based assay; assay type: functional
T3 sequence (P08912 whole entry): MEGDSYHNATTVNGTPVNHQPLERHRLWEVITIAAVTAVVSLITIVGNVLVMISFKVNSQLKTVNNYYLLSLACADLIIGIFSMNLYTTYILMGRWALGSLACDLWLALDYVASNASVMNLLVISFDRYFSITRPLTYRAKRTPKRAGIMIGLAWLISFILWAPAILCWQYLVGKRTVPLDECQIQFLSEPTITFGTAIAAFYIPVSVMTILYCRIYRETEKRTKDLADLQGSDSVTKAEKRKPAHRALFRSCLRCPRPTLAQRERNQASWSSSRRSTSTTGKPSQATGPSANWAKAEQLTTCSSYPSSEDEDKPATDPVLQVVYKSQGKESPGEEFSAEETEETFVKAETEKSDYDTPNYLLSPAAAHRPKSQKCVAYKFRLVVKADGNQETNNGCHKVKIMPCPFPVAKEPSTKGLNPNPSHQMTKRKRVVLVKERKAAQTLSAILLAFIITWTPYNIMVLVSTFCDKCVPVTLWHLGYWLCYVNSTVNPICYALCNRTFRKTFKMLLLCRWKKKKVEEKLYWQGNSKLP

[6] = biological target: T4, Muscarinic acetylcholine receptor M2 (Rattus norvegicus, UniProt P10980); test: Agonist activity at rat muscarinic M2 receptor expressed in CHO cells; assay type: functional, cell-based
T4 sequence (P10980 whole entry): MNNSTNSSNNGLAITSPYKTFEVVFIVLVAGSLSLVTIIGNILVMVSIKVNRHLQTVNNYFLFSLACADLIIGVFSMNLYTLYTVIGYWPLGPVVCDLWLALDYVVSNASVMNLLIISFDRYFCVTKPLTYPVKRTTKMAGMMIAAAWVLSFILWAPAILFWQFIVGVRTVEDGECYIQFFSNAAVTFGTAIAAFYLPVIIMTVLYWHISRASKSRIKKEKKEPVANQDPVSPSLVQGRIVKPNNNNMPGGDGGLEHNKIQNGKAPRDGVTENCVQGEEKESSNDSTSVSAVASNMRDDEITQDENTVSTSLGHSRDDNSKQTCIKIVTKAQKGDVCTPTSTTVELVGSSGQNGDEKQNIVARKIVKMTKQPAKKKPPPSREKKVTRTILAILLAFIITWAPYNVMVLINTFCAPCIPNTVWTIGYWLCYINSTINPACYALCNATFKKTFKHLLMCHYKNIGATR

[7] = biological target: Muscarinic acetylcholine receptor M3 (Rattus norvegicus, UniProt P08483); test: Agonist activity at rat recombinant muscarinic M3 receptor by HTS cell based assay; assay type: functional
[8] = biological target: T5, Muscarinic acetylcholine receptor M2 (Homo sapiens, UniProt P08172); test: Agonist activity at human recombinant muscarinic M2 receptor by HTS cell based assay; assay type: functional
T5 sequence (P08172 whole entry): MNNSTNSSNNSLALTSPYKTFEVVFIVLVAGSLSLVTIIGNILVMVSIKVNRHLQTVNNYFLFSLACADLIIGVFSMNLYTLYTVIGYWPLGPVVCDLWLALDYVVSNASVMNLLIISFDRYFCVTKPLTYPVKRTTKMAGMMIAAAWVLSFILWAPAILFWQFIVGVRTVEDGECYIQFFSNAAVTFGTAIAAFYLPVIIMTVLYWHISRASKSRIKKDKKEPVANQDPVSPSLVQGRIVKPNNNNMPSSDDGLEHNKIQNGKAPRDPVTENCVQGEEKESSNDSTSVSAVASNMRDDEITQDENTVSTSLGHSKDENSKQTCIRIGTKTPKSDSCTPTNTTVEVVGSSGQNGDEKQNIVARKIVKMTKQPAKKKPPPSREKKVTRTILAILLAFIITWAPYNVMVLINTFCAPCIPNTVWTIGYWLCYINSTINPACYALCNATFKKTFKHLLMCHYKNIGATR

[9] = biological target: T4, Muscarinic acetylcholine receptor M2; test: Agonist activity at rat recombinant muscarinic M2 receptor by HTS cell based assay; assay type: functional

D(2) dopamine receptor, sequence (P14416 whole entry): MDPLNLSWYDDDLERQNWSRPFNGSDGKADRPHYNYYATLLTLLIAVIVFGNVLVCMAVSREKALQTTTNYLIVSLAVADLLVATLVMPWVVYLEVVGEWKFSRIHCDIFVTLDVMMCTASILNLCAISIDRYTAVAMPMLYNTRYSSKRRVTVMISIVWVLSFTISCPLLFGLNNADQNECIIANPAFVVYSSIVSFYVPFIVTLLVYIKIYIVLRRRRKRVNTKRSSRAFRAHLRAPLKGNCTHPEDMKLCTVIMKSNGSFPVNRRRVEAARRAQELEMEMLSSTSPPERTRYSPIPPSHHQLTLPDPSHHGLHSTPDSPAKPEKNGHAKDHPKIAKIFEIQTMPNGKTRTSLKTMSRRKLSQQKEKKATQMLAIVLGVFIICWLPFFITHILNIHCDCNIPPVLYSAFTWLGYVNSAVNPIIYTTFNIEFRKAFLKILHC
Muscarinic acetylcholine receptor M3 (Homo sapiens, UniProt P20309), sequence (P20309 whole entry): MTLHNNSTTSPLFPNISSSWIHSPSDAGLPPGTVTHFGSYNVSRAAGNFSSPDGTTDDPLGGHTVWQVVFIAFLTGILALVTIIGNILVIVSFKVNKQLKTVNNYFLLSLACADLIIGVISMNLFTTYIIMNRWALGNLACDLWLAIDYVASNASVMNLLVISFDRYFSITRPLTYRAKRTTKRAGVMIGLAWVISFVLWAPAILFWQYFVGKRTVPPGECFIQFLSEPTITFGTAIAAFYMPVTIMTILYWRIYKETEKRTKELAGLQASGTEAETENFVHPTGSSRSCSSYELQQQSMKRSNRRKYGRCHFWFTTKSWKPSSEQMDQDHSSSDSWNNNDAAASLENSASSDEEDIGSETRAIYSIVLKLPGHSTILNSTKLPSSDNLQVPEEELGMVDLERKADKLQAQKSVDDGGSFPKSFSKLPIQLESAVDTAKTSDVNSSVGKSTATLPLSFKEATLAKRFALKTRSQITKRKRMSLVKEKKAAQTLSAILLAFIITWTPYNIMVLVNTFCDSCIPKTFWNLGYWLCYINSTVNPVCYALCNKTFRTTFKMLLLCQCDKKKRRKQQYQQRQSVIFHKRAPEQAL
Muscarinic acetylcholine receptor M3 (Rattus norvegicus, UniProt P08483), sequence (P08483 whole entry): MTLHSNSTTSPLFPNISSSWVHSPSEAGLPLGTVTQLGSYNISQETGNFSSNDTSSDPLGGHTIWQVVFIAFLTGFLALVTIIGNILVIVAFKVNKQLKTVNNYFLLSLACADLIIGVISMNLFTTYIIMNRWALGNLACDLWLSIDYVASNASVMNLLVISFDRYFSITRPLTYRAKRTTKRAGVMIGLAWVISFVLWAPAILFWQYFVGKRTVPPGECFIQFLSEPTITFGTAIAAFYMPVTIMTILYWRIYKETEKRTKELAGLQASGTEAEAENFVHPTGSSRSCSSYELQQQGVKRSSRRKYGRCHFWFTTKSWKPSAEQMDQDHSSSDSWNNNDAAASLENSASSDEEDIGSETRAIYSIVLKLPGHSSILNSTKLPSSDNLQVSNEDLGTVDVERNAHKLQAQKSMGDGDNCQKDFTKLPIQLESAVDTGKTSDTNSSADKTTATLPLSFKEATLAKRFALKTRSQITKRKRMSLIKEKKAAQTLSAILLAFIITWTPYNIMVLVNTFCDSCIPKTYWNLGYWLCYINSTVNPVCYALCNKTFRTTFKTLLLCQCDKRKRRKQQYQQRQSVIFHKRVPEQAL

| Compound | IC50 (D(2) dopamine receptor) [µM] | EC50 [1] [µM] | EC50 [2] [µM] | EC50 [3] [µM] | EC50 [4] [µM] | EC50 [5] [µM] | EC50 [6] [µM] | EC50 [7] [µM] | EC50 [8] [µM] | EC50 [9] [µM] |
| --- | --- | --- | --- | --- | --- | --- | --- | --- | --- | --- |
| CCOC(=O)N1CCC(N2CCC[C@@H](NC(=O)c3ccccc3C)C2)CC1 | > 30 | > 30 | > 30 | > 30 | > 30 | > 30 | > 30 | > 30 | > 30 | > 30 |
| CCOC(=O)N1CCC(NCCNC(=O)c2ccccc2C)CC1 | 4.5 | > 30 | > 30 | > 30 | > 30 | > 30 | > 30 | > 30 | > 30 | > 30 |
